Assay results reported in patent publication US12427195B1, “Methods of neoantigen identification” (La Jolla Institute for Immunology, priority 2019, dated 2025).

What was measured:
[1] = tested on: E6+HLA-A*02:01+ tumor line (Caski); experiment: Dynamic monitoring of killing of Caski tumor line; assay type: cell-based; conditions: Caski cells
From the text: (§1) FIG. 16B depicts dynamic monitoring of E6^+HLA-A*02:01^+tumor line (Caski) to assess the capacity of the engineered TCR to specifically kill tumor lines expressing the HPV E6 protein at 10:1 effector to target ratio. […] To assess non-specific (alloreactivity) background killing by the CD8 T cells, the growth of CD8 T cells that were stimulated and expanded but NOT subjected to CRISPR or LV editing are represented by Curve 3.

[2] = tested on: patient-derived cancer line expressing the HPV E6 protein; experiment: Dynamic monitoring of killing of patient-derived cancer line; assay type: cell-based, human
From the text: as §1, with “16A” for “16B”, “patient-derived cancer” for “E6^+HLA-A*02:01^+tumor”, “line” for “line (Caski)”, “the” for “the engineered”, “not” for “NOT”

SMILES: N.N.[Cl][Pt][Cl] [cisplatin]
- time to kill tumor line [1]: ≤ 48 h
- time to kill tumor line [2]: ≤ 48 h
